Our source for the LD50 values is patent publication US20060046972A1, “Cytotoxic nucleoside analog compound 003 for treating cancer” (Parker Hughes Institute, priority 2004, published 2006).

The nature of the data set: Acute toxicity of intraperitoneal bolus doses in CD-1 mice. Type of data set: in vivo. Particulars: female, CD-1, mouse, in vivo, ip; single i.p. bolus; not reached at highest dose. As to the method:
1.2.8 Animals Female CD-1 mice (Body weight: ˜25 g; Age: 7 week old) were purchased, from Charles River Laboratories (Willmington, Mass., USA). MMTV Neu-mice [FVB/N-TgN(MMTV neu)202MUL; Jackson Laboratory, Bar Harbor, Me.] were bred to produce multiple litters. All mice were housed in microisolator cages (Lab Products, Inc., Maywood, N.Y., USA) containing autoclaved bedding in a controlled specific pathogen-free (SPF) environment (12-h light/12-h dark photoperiod, 22±1° C., 60±10% relative humidity), which is fully accredited by the USDA (United States Department of Agriculture). Adult male Lewis rats (Body weight: ˜160 g) were obtained from the specific pathogen-free (SPF) breeding facilities of Harlan Sprague Dawley (Indianapolis, Id., USA) at 14 weeks of age. All husbandry and experimental contact made with the mice and rats maintained SPF conditions. The rats were kept in microisolater cages (Allentown Caging Equipment Co., Inc., Allentown, N.J., USA) containing autoclaved food, water, and bedding. Animal studies were approved by Parker Hughes Institute Animal Care and Use Committee and all animal care procedures 1.5 conformed to the Guide for the Care and Use of Laboratory Animals (National Research Council, National Academy Press, Washington D.C. 1996, USA).
The toxicity profile of Compound 003 in CD-1 mice and Lewis rats was examined, using standard procedures as previously reported for other experimental drugs (Uckun, et al., 2003, Arzneimittelforschun. 53:357; Uckun, et al., 2002, Clin Cancer Res. 8: 1224; Uckun, et al., 2002, Antimicrob Agents Chemother. 46:3428). In brief, mice and rats were treated with intraperitoneal injections of vehicle or Compound 003 at multiple dose levels. Compound 003 was administered as a 0.2 mL (for mice) or 0.5 mL (for rats) bolus injection containing 10% DMSO as a vehicle. Animals were allowed free access to autoclaved standard pellet food and tap water throughout the experiments and monitored daily for morbidity and mortality. Animals were electively sacrificed on day 7 or day 30 to determine the toxicity of Compound 003 by examining their blood chemistry profiles, blood counts, and evaluating multiple organs for the presence of toxic lesions. Blood was collected by intracardiac puncture following anesthesia with ketamine:xylazine and immediately heparinized. The blood chemistry profiles were examined using a Synchron CX5CE Chemical Analyzer (Beckman Instruments, Inc., Fullerton, Calif., USA). Blood counts (red blood cells [RBC], white blood cells [WBC] and platelets [Plt]) were determined using a HESKA Vet ABC-Diff Hematology Analyzer (HESKA Corporation, Fort Collins, Colo., USA). Absolute neutrophil counts (ANC) and absolute lymphocyte counts (ALC) were calculated from WBC values after determining the percentages of neutrophils and lymphocytes by a manual differential count. At the time of necropsy, […] from mice (bone, bone marrow, brain, cecum, heart, kidney, large intestine, liver, lung, lymph node, ovary, pancreas, skeletal muscle, skin, small intestine, spleen, stomach, thymus, thyroid gland, urinary bladder, and uterus, as available) and 21 different tissues from rats (bone, bone marrow, brain, coagulating gland, epididymis, heart, large intestine, small intestine, kidney, liver, lung, pancreas, peripheral nerve/spinal nerve, skeletal muscle, skin, spinal cord, spleen, stomach, testes, thymus, urinary bladder) were collected within 15 minutes after sacrifice, gross pathological findings were documented, organs were preserved in 10% neutral phosphate buffered formalin, and processed for histopathological examination. For histopathologic studies, formalin fixed tissues were dehydrated and embedded in paraffin by routine methods. Glass slides with affixed 4-5 micron tissue sections were prepared and stained with Hemotoxylin and Eosin (H&E). […]

The term LD50 denotes the dose at which mortality reaches 50%. A high value points to lower toxicity.

With `COC(=O)C(C)NP(=O)(OCC1OC(n2cc(C)c(=O)[nH]c2=O)CC1N=[N+]=[N-])Oc1ccc(OC)cc1` (stereo not shown) [Compound 003, 3′-azidothymidine 5′-[p-methoxyphenylmethoxyalaninyl phosphate]], the LD50 was > 80 mg/kg.
